Results from patent US5256559A, “Methods and compositions for inhibiting platelet aggregation” (Biogen, Inc., priority 1991, dated 1993).
Where two headings read alike, the source gives them in different places.

Tests used:
[1] = target: thrombin (Homo sapiens, UniProt P00734); conditions: cited from earlier work
[2] = tested on: plasma; test: activated partial thromboplastin time (APTT) of plasma from patients recovered from heparin-induced thrombocytopenia; design: species or system human; conditions: concentrations used in the platelet studies, FIGS. 12A and 12B
Protocol: We isolated whole blood from patients who had recovered from heparin-induced thrombocytopenia. We then centrifuged the blood at 4° C. for 15 minutes at 2,000× g in a Sorval rotor to obtain plasma. […] We measured APTT semi-automatically using a Coagamate XC (General Diagnostics Organon Teknika).

Row | Substance | Kd ([1]; overall tight binding, read-out: Kd, binding to thrombin in a 1:1 stoichiometric complex) | Kd ([1]; site separate from the catalytic site, read-out: Kd, "low" affinity site on the thrombin molecule) | prolongation of APTT [2]
1 | Hirudin | ~0.02 nM | ~10 nM | –
2 | heparin | – | – | sufficient to prolong APTT into the desired therapeutic range
